Key:
[1] = Measurement of ATP content in media (luciferin-luciferase reaction, luminometer); conditions: luterial media with SSF (12 hr) compared with luterial media with SSH (12 hr)
Experimental: SSH and SSF were further added to the media and their effects on ATP production by luterial were examined. A mediacontaining SSF induced higher ATP production by luterialcompared to a mediawith SSH, thus finding a medium mix that is capable of efficiently increasing the ATP production by luterial (FIG. 18).
10 mL of each of four media, including a control, luterial, luterial with SSH (12 hr) and luterial with SSF (12 hr), was placed in a tube, and glucose (100 mg/mL) and ADP substrate (1 mM) were added thereto, followed by culture in water bath at 37° C. At 30-min intervals after the start of the culture, 100 μl of a sample was collected, placed in a tube, and diluted 10-fold with 900 μl of distilled water. Then, 10 μl of the sample was transferred into a fresh tube, and 100 μl of luciferase reagent contained in the ATP kit was added thereto, and measurement was immediately performed five times using a luminometer.

[2] = test system: SKOV3 ovarian cancer cell line; experiment: MTT assay, growth inhibition of SKOV3 ovarian cancer cell line; format: cell-based; conditions: positive control drug; cell line not stated (SKOV3 and A2780 tested, FIG. 27)

ATP concentration in luterial media with additive [1] | SMILES | IC50 [2]
higher than that in the SSH-added group | O=c1c(O)c(-c2ccc(O)c(O)c2)oc2cc(O)ccc12 [SSF, fisetin] | 
 | N.N.[Cl][Pt][Cl] [cisplatin] | 100 µM
